pIC50: −log10 of the molar value.
Key:
ASK1 = ASK1 (Homo sapiens (Human), UniProt Q99683); assay: ASK1 Kinase Assay (Promega ASK1 Kinase Enzyme System, ADP-Glo); assay type: biochemical; conditions: enzyme 50 nM, ATP 10 μM
Protocol: The ASK1 enzymatic assay was run following Promega ASK1 Kinase Enzyme System (Cat #V3881). The kit provides the protocol, enzymes and all reagents necessary to run an assay. Firstly, the compounds, enzyme, substrate and ATP were diluted in provided assay buffer. The final concentration of the enzyme was 50 nM, substrate (Myelin basic protein) 1 μg/ml and ATP 10 μM. The compound and the enzyme were pre-incubated in a 384 well white solid bottom plate (Greiner, Cat#784075) for 10 minutes. After incubation, the substrate and ATP were added and incubated for further 60 minutes. After 60 minutes, ADP-Glo™ was added and plate was incubated for another 40 minutes. After 40 minutes, Kinase Detection Reagent was added and the plate was incubated for 45 minutes. After 45 minutes, plate was read on Perkin Elmer EnVision using luminescence read (0.5 seconds/well).

[1] = tested on: LPS-induced TNFalpha in Human PBMCs; assay: Inhibition of LPS-induced TNFalpha in Human PBMCs; assay type: cell-based; conditions: PBMC, 100 ng/ml LPS, 6 hr, read-out: TNFa Inhibition IC50
Protocol: Cryopreserved human PBMCs were obtained from AllCells (cat# PB003F). After thawing/dilution protocols using RPMI medium supplemented with 5% FBS (heat inactivated), 100 ul/well of 1×10^6 cells/ml were plated into 96 well tissue culture plates (Corning). Cells were then pre-incubated for 1 hr at 37° C. in humidified 5% CO2 and 95% air with test compounds diluted in DMSO (final DMSO concentration 0.3%). Each compound was tested at 10 concentrations in duplicate wells. After the pre-incubation, 100 ng/ml LPS (E. Coli; Sigma) in RPMI media with 5% FBS was added for a 6 hr incubation at 37° C. in humidified 5% CO2 and 95% air. Controls on each plate included cells and LPS only, cells and media only (no LPS), and media only. After the 6 hr incubation, plates were centrifuged and the supernatants transferred to a new plate and frozen for subsequent TNFalpha analysis. Human TNFalpha was analyzed by ELISA according to the manufacturer's instructions (BD Sciences, BD OptEIA™ Cat#550610) and analyzed on a SpectraMax M series (Molecular Devices) microplate reader at OD 450 nm. IC50s were calculated using XLFit4 curve fitting software (IDBS) and a 4-parameter one-site sigmoid dose response fit.

Sequence of ASK1 (Q99683 649-946 limits assumed): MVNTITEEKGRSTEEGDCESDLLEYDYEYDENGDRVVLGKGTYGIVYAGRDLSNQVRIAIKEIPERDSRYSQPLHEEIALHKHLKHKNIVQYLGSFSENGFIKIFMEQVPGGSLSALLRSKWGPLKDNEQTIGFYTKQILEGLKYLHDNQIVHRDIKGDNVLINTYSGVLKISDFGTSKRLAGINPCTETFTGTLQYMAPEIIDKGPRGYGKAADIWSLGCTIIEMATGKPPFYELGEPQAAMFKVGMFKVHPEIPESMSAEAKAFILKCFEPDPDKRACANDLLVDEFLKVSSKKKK

O=C(c1ccc2c(c1)CN(c1cccc(-c3nncn3C3CC3)n1)C2=O)N1CCC(O)CC1 [Compound 12, 2-(6-(4-cyclopropyl-4H-1,2,4-triazol-3-yl)pyridin-2-yl)-5-(4-hydroxypiperidine-1-carbonyl)isoindolin-1-one]
pIC50 (ASK1): > 6.70 | pIC50 [1]: < 8.00

O=C1c2cc(-c3cccnc3)c(OC3CCCC3)cc2CN1c1cccc(-c2nncn2C2CC2)n1 [Compound 69, 5-(Cyclopentyloxy)-2-(6-(4-cyclopropyl-4H-1,2,4-triazol-3-yl)pyridin-2-yl)-6-(pyridin-3-yl)isoindolin-1-one]
pIC50 (ASK1): > 6.70 | pIC50 [1]: > 5.70

O=C(c1ccc2c(c1)CN(c1cccc(-c3nncn3C3CC3)n1)C2=O)N1CCCCC1 [Compound 11, 2-(6-(4-cyclopropyl-4H-1,2,4-triazol-3-yl)pyridin-2-yl)-5-(piperidine-1-carbonyl)isoindolin-1-one]
pIC50 (ASK1): > 6.70 | pIC50 [1]: 5.00 to 5.70

CC1(O)CCN(C(=O)c2ccc3c(c2)CN(c2cccc(-c4nncn4C4CC4)n2)C3=O)CC1 [Compound 13, 2-(6-(4-cyclopropyl-4H-1,2,4-triazol-3-yl)pyridin-2-yl)-5-(4-hydroxy-4-methylpiperidine-1-carbonyl)isoindolin-1-one]
pIC50 (ASK1): > 6.70 | pIC50 [1]: < 8.00

O=C(c1cc2c(cc1-c1cccnc1)C(=O)N(c1cccc(-c3nncn3C3CC3)n1)C2)N1CCCC1 [Compound 71, 2-(6-(4-cyclopropyl-4H-1,2,4-triazol-3-yl)pyridin-2-yl)-6-(pyridin-3-yl)-5-(pyrrolidine-1-carbonyl)isoindolin-1-one]
pIC50 (ASK1): > 6.70 | pIC50 [1]: 5.00 to 5.70

CC(C)Oc1cc2c(cc1-c1cccnc1)C(=O)N(c1cccc(-c3nncn3C3CC3)n1)C2 [Compound 68, 2-(6-(4-cyclopropyl-4H-1,2,4-triazol-3-yl)pyridin-2-yl)-5-isopropoxy-6-(pyridin-3-yl)isoindolin-1-one]
pIC50 (ASK1): > 6.70 | pIC50 [1]: > 5.70

CC(=O)NC1CCN(C(=O)c2ccc3c(c2)CN(c2cccc(-c4nncn4C4CC4)n2)C3=O)CC1 [Compound 17, N-(1-(2-(6-(4-cyclopropyl-4H-1,2,4-triazol-3-yl)pyridin-2-yl)-1-oxoisoindoline-5-carbonyl)piperidin-4-yl)acetamide]
pIC50 (ASK1): > 6.70 | pIC50 [1]: < 8.00

CN1CCN(C(=O)c2ccc3c(c2)CN(c2cccc(-c4nncn4C4CC4)n2)C3=O)CC1 [Compound 10, 2-(6-(4-cyclopropyl-4H-1,2,4-triazol-3-yl)pyridin-2-yl)-5-(4-methylpiperazine-1-carbonyl)isoindolin-1-one]
pIC50 (ASK1): > 6.70 | pIC50 [1]: 5.00 to 5.70

Cc1ncc(-c2ccc3c(c2)C(=O)N(c2cccc(-c4nncn4C4CC4)n2)C3)cn1 [Compound 44, 2-(6-(4-cyclopropyl-4H-1,2,4-triazol-3-yl)pyridin-2-yl)-6-(2-methylpyrimidin-5-yl)isoindolin-1-one]
pIC50 (ASK1): > 6.70 | pIC50 [1]: 5.00 to 5.70

CN(C)C1CCN(C(=O)c2ccc3c(c2)CN(c2cccc(-c4nncn4C4CC4)n2)C3=O)CC1 [Compound 15, 2-(6-(4-cyclopropyl-4H-1,2,4-triazol-3-yl)pyridin-2-yl)-5-(4-(dimethylamino)piperidine-1-carbonyl)isoindolin-1-one]
pIC50 (ASK1): > 6.70 | pIC50 [1]: 5.00 to 5.70

COC1CCN(C(=O)c2ccc3c(c2)CN(c2cccc(-c4nncn4C4CC4)n2)C3=O)CC1 [Compound 14, 2-(6-(4-cyclopropyl-4H-1,2,4-triazol-3-yl)pyridin-2-yl)-5-(4-methoxypiperidine-1-carbonyl)isoindolin-1-one]
pIC50 (ASK1): > 6.70 | pIC50 [1]: 5.00 to 5.70

O=C(c1ccc2c(c1)CN(c1cccc(-c3nncn3C3CC3)n1)C2=O)N1CCOCC1 [Compound 7, 2-(6-(4-cyclopropyl-4H-1,2,4-triazol-3-yl)pyridin-2-yl)-5-(morpholine-4-carbonyl)isoindolin-1-one]
pIC50 (ASK1): > 6.70 | pIC50 [1]: < 8.00

O=C1c2cc(-c3cncnc3)ccc2CN1c1cccc(-c2nncn2C2CC2)n1 [Compound 43, 2-(6-(4-cyclopropyl-4H-1,2,4-triazol-3-yl)pyridin-2-yl)-6-(pyrimidin-5-yl)isooindolin-1-one]
pIC50 (ASK1): > 6.70 | pIC50 [1]: 5.00 to 5.70

CN(C)C(=O)c1ccc2c(c1)CN(c1cccc(-c3nncn3C3CC3)n1)C2=O [Compound 2, 2-(6-(4-Cyclopropyl-4H-1,2,4-triazol-3-yl)pyridin-2-yl)-N,N-dimethyl-1-oxoisoindoline-5-carboxamide]
pIC50 (ASK1): > 6.70 | pIC50 [1]: 5.00 to 5.70

CC(=O)N1CCN(C(=O)c2ccc3c(c2)CN(c2cccc(-c4nncn4C4CC4)n2)C3=O)CC1 [Compound 16, 5-(4-acetylpiperazine-1-carbonyl)-2-(6-(4-cyclopropyl-4H-1,2,4-triazol-3-yl)pyridin-2-yl)isoindolin-1-one]
pIC50 (ASK1): > 6.70 | pIC50 [1]: < 8.00

O=C1c2cc(-c3ccc(C4CC4)nc3)ccc2CN1c1cccc(-c2nncn2C2CC2)n1 [Compound 46, 2-(6-(4-cyclopropyl-4H-1,2,4-triazol-3-yl)pyridin-2-yl)-6-(6-cyclopropylpyridin-3-yl)isoindolin-1-one]
pIC50 [1]: > 5.70
